Data: patent US20160340656A1, “PEPTIDES DERIVED FROM GSE 24.2 FOR TREATING DISEASES CAUSED BY OXIDATIVE STRESS AND DAMAGE TO DNA” (CONSEJO SUPERIOR DE INVESTIGACIONES CIENTÍFICAS (CSIC), priority 2013, published 2016)
“Also recorded” adds a separate entry of the source.

Key:
[1] = tested on: AT cells (AT3784); assay: Damage to DNA in AT cells: pCHK2 Thr68 foci after lentiviral expression of GSE24.2; assay type: cell-based, human
Experimental: FIG. 2. Determination of damage to DNA in AT cells: AT3784 AT cells were infected with a lentiviral vector expressing GSE24.2 or a GFP empty vector and were fixed 24 hours later to be processed and hybridised with an antibody against the kinase pCHK2[…]. Control C-1787 cells were used as the negative control. Next they were hybridised with a fluorescein-labelled antibody and were stained with DAPI to locate the nuclei. […] Therefore expression of GSE24.2 is able to correct damage to DNA in 28% of cells, confirming the data obtained with phosphorylated histone H2AX.

[2] = tested on: IL6; assay: Expression of proinflammatory cytokine IL6 in AT719-P cells; assay type: cell-based, human; details: relative to β-actin
Experimental: FIG. 12. Levels of expression of proinflammatory cytokines in ataxia telangiectasia cells after expressing peptides GSE24.2 and GSE4. AT719-P AT cells were infected with a lentiviral vector expressing GSE24.2, GSE4 or a GFP empty vector and three weeks later the RNA was extracted and after obtaining the corresponding cDNA, the levels of expression of the proinflammatory cytokines IL6 and IL8 were determined. AT736C cells were used as a control. The levels of expression of the gene β-actin were measured as control of expression. The results are expressed as the relative increase in the number of times of expression of each of the genes compared to β-actin, considering the levels of expression of AT736C cells as 1.
As the peptide denominated GSE4 was smaller than the peptides with ability to repair telomerase activity, we studied if it had the same activity as peptide GSE24.2 for attenuating oxidative stress, expression of proinflammatory cytokines and repairing the senescence in ataxia telangiectasia cells. […] Finally, given that the increase in expression of the interleukins IL6 and IL8 are associated with a secretory phenotype linked to senescence in ataxia telangiectasia, we evaluated the ability of both peptides GSE24.2 and GSE4 to reduce senescence by evaluating senescence-associated β-galactosidase activity (SA-beta-Gal) (FIG. 13).

[3] = tested on: F9A353V cells; assay: Repair of damage to DNA: Western blot of histone H2AX (Ser139) in F9A353V cells transfected with synthetic peptides; assay type: cell-based
Experimental: FIG. 6. Western blot of F9 and F9A353V cells after 24 hours of transfection with chemically synthesized peptides derived from GSE24.2. The peptides indicated on each line of gel were transfected (15 μg of each peptide) on a 30 mm plate. After separating the protein extracts on polyacrylamide gels and transferring them to a nitrocellulose membrane, the membrane was hybridised with an antibody against histone H2AX (Ser139) and then with an antibody against α-tubulin as a loading control.
FIG. 7. Quantification of Western blot of FIG. 6. The signal obtained with histone H2AX (Ser139) was corrected with the signal of α-tubulin considering the signal obtained with the F9 cells transfected with beta-galactosidase (as control) as 1, using the NIH-Image program.
FIG. 8. Western blot of F9 and F9A353V cells after 24 of transfection with the GSE4 peptide at increasing concentrations. […]
FIG. 9. Quantification of the Western blot of FIG. 8. […]
In order to optimise the operating conditions of peptide GSE4, different amounts of peptide GSE4 were transfected into F9A353V cells and the amount of damage to DNA was determined using a specific antibody as was performed in FIG. 6 (FIG. 8). After quantification of the Western blot (FIG. 9), maximum inhibition of damage to DNA was obtained by transfecting 8 μg of peptide GSE4.

Sequence | cells in which damage to DNA is corrected [1] | fewer AT cells showing basal damage ([1]; after expressing GSE24.2) | reduction of high levels of damage to DNA ([1]; after expressing GSE24.2) | reduction of levels of expression of IL6 [2] | amount of peptide transfected giving maximum inhibition of damage to DNA ([3]; increasing amounts of peptide) | repair of damage to DNA (phosphorylation of histone H2AX) ([3]; peptides lipofected with Proteojuice, 24 hours)
GFINLDKPSNPSSHEVVAWIRRILRVEKTGHSGTLDPKVTGCLIVCIERATRLVK (GSE24.2; listed as Homo sapiens) [55-amino-acid peptide corresponding to the protein dyskerin; known from WO2007/090911] | 28% | 25% | 13% | – | – | –
GFINLDKPSNP [GSE4] | – | – | – | 80% | 8 µg | substantially improved the activity of the full domain; also recorded: smallest sized peptide able to repair the damage to DNA
